Measured values taken from patent US8372967B2, “Compounds and methods for modulating expression of GCCR” (Isis Pharmaceuticals, Inc., priority 2006, dated 2013).
Strand notation (5' to 3'): a small letter for the sugar, then the base; units joined by * are phosphorothioate-linked, units joined directly phosphodiester-linked; [ ] holds rarer units or linkages, { } end groups; capitals alone tell only the bases. e = 2'-O-(2-methoxyethyl) (MOE); [5mC] = 5-methylcytosine; d = 2'-deoxy (DNA)

Test system: PCSK9 mRNA
Type: cell-based, human
Settings: Hep3B cells, 100 nM, relative to untreated control cells; for % Inhib: 0 = no reduction observed
Experimental: When cells reached appropriate confluency, they were treated with oligonucleotide using LIPOFECTIN® as described. […] Cells were treated and data were obtained in duplicate or triplicate. […] Cells were harvested 16-24 hours after oligonucleotide treatment.
Prior to quantitative PCR analysis, primer-probe sets specific to the target gene being measured were evaluated for their ability to be “multiplexed” with a GAPDH amplification reaction. After isolation the RNA is subjected to sequential reverse transcriptase (RT) reaction and real-time PCR, both of which are performed in the same well. RT and PCR reagents were obtained from Invitrogen Life Technologies (Carlsbad, Calif.). […] The RT reaction was carried out by incubation for 30 minutes at 48° C. Following a 10 minute incubation at 95° C. to activate the PLATIN 9M® Taq, 40 cycles of a two-step PCR protocol were carried out: 95° C. for 15 seconds (denaturation) followed by 60° C. for 1.5 minutes (annealing/extension).
170 μL of RiboGreen® working reagent (RiboGreen® reagent diluted 1:350 in 10 mM Tris-HCl, 1 mM EDTA, pH 7.5) was pipetted into a 96-well plate containing 30 μL purified cellular RNA. The plate was read in a CytoFluor® 4000 (PE Applied Biosystems) with excitation at 485 nm and emission at 530 nm.
Short antisense compounds targeted to a PCSK9 nucleic acid were tested for their effects on PCSK9 mRNA in vitro. The Isis No, gapmer motif and SEQ ID NO of each short antisense compound are shown again in Table 75. Cultured Hep3B cells were treated with 100 nM of short antisense compound. 5-10-5 MOE gapmers targeted to a PCSK9 nucleic acid were used as positive controls. After the treatment period, RNA was isolated from the cells and PCSK9 mRNA levels were measured by quantitative real-time PCR, as described herein. PCSK9 mRNA levels were adjusted according to total RNA content as measured by RIBOGREEN®. Results are presented in Table 75 as percent inhibition of PCSK9 (% Inhib), relative to untreated control cells.

400305 (antisense eG*e[5mC]*d[5mC]*dT*dG*dT*d[5mC]*dT*dG*dT*dG*dG*eA*eA) [compound 400305]
% Inhibition Range: 30-40%
% Inhib: 38%

400310 (antisense eT*e[5mC]*d[5mC]*d[5mC]*dG*dG*d[5mC]*d[5mC]*dG*d[5mC]*dT*dG*eA*e[5mC]) [compound 400310]
% Inhib: 8%

400337 (antisense eG*eT*d[5mC]*d[5mC]*dT*d[5mC]*dA*dG*dG*dG*dA*dA*e[5mC]*e[5mC]) [compound 400337]
% Inhib: 0%

400349 (antisense e[5mC]*eT*dG*dG*dA*dG*d[5mC]*dA*dG*d[5mC]*dT*d[5mC]*eA*eG) [compound 400349]
% Inhibition Range: 10-20%
% Inhib: 13%

400298 (antisense e[5mC]*eA*dT*dG*dG*dG*dG*d[5mC]*dA*dA*d[5mC]*dT*eT*e[5mC]) [compound 400298]
% Inhib: 0%

400300 (antisense eG*eG*dG*dA*dT*dG*d[5mC]*dT*d[5mC]*dT*dG*dG*eG*e[5mC]) [compound 400300]
% Inhib: 9%

400316 (antisense eT*eA*dT*dG*dA*dG*dG*dG*dT*dG*d[5mC]*d[5mC]*eG*e[5mC]) [compound 400316]
% Inhib: 8%

400324 (antisense eG*eA*dG*dT*dA*dG*dA*dG*dG*d[5mC]*dA*dG*eG*e[5mC]) [compound 400324]
% Inhib: 7%

400313 (antisense eG*e[5mC]*dA*dT*d[5mC]*d[5mC]*d[5mC]*dG*dG*d[5mC]*d[5mC]*dG*e[5mC]*eT) [compound 400313]
% Inhibition Range: 10-20%
% Inhib: 10%

400369 (antisense e[5mC]*e[5mC]*dG*dG*d[5mC]*dT*d[5mC]*d[5mC]*dG*dG*d[5mC]*dA*eG*e[5mC]) [compound 400369]
% Inhib: 0%

400340 (antisense e[5mC]*eT*dG*dG*dT*d[5mC]*d[5mC]*dT*d[5mC]*dA*dG*dG*eG*eA) [compound 400340]
% Inhib: 0%

400304 (antisense eG*eA*dG*dA*dT*dA*d[5mC]*dA*d[5mC]*d[5mC]*dT*d[5mC]*e[5mC]*eA) [compound 400304]
% Inhibition Range: 10-20%
% Inhib: 11%

400358 (antisense eA*eT*dG*dG*d[5mC]*dA*dG*d[5mC]*dA*dG*dG*dA*eA*eG) [compound 400358]
% Inhibition Range: 10-20%
% Inhib: 12%

400311 (antisense eA*eT*d[5mC]*d[5mC]*d[5mC]*dG*dG*d[5mC]*d[5mC]*dG*d[5mC]*dT*eG*eA) [compound 400311]
% Inhibition Range: 10-20%
% Inhib: 18%

400297 (antisense eA*eT*dG*dG*dG*dG*d[5mC]*dA*dA*d[5mC]*dT*dT*e[5mC]*eA) [compound 400297]
% Inhib: 0%

400354 (antisense eG*eA*d[5mC]*dA*d[5mC]*d[5mC]*d[5mC]*dT*d[5mC]*dA*d[5mC]*d[5mC]*e[5mC]*e[5mC]) [compound 400354]
% Inhibition Range: 10-20%
% Inhib: 19%

400361 (antisense eG*eG*d[5mC]*dA*dG*d[5mC]*dA*dG*dA*dT*dG*dG*e[5mC]*eA) [compound 400361]
% Inhib: 2%

400365 (antisense e[5mC]*eT*d[5mC]*d[5mC]*dG*dG*d[5mC]*dA*dG*d[5mC]*dA*dG*eA*eT) [compound 400365]
% Inhibition Range: 20-30%
% Inhib: 25%
